{"source": "paper PMC6237330", "about": "“Bioactivity of selected materials for coffee substitute” (PLoS ONE, 2018)", "origin": "cited, not measured here", "key": {"[1]": {"system": "animals", "parameters": "method as in earlier work", "details": "in the laboratory"}, "[2]": {"system": "mice", "parameters": "method as in PMID 20237914", "details": "2 mg furan/kg bwt"}}}
{"smiles": "C=CC(N)=O", "note": "[ACR, acrylamide]", "values": [{"measurement": "Tumors in animals", "setting": "[1]", "result": "causes tumors in animals"}]}
{"smiles": "c1ccoc1", "note": "[furan]", "values": [{"measurement": "Tumor induction", "setting": "[2]", "result": "may induce tumor"}]}
